The values that follow come from patent publication US20210261513A1, “4-SUBSTITUTED PHENYL-1,3,5-TRIAZINE DERIVATIVES AS MODULATORS OF TRK RECEPTORS” (ALZECURE PHARMA AB, priority 2018, published 2021).

The target of assay [1] is T1, TrkB (Homo sapiens, UniProt Q16620).
T1 construct: expressed in transfected cells; host or cells: U2OS
The assay can be described thus: cell-based Enzyme Fragment Complementation (EFC) assay, U2OS cells over-expressing TrkB. As to conditions: compound pre-mixed with ligand (NGF), final ligand concentration 10 ng/mL, 3 hours at room temperature, read-out: TrkB potency expressed as EC50. From the text:
(§1) A high throughput cell-based screen has been used to identify positive modulators of TrkA and TrkB. The screen involves the use of cell-based assay overexpressing TrkA or TrkB. The purpose of the assay is to identify compounds that modulate neurotrophin signalling (Forsell et al 2012). The assay can be used in inhibitor mode using a high concentration of ligand, in modulator mode using an intermediate concentration and in agonist mode using a low concentration of ligand.
(§2) The assay uses Enzyme Fragment Complementation (EFC) technique, which is a proximity-based assay. Briefly, cells used in this assay over-express two fusion proteins, i.e. the receptor, which can be either of TrkA or TrkB, fused to a small peptide of beta-galactosidase and an adaptor protein, i.e. SHC1 (or any other Trk-adaptor protein) fused to the major part of beta-galactosidase. […] The proximity between the small activating peptide on the receptor and the major part of beta-galactosidase on the adaptor protein leads to an active beta-galactosidase enzyme. The activation of the receptor is quantified by measuring the amount of active beta-galactosidase by its conversion of a non-luminescent substrate into a luminescent product.
(§3) U2OS-cells, over-expressing TrkA or TrkB, are plated in 96- or 384-well plates and incubated overnight. On the following day, test compound was pre-mixed with ligand (NGF) and the ligand-compound mixture is then added to the cells to yield a final ligand concentration of 10 ng/mL. After 3 hours of incubation at room temperature, the incubation is stopped by the addition of a beta-galactosidase substrate mixture containing detergents. The substrate mixture is incubated for 60 minutes at ambient temperature. The luminescence is thereafter read by the use of a plate reader.

The target in assay [2] is T2, TrkA (Homo sapiens, UniProt P04629).
T2 construct: expressed in transfected cells; host or cells: U2OS
Nature of the assay: cell-based Enzyme Fragment Complementation (EFC) assay, U2OS cells over-expressing TrkA. As to conditions: compound pre-mixed with ligand (NGF), final ligand concentration 10 ng/mL, 3 hours at room temperature, read-out: TrkA potency expressed as EC50.
Source text: as §1, §2, §3

Assay [3] has as its system ephrin type-B receptor 2 (EphB2). Particulars: Suzuki et al., FEBS Open Bio 2016; cited from earlier work.

T2 sequence (P04629 33-796): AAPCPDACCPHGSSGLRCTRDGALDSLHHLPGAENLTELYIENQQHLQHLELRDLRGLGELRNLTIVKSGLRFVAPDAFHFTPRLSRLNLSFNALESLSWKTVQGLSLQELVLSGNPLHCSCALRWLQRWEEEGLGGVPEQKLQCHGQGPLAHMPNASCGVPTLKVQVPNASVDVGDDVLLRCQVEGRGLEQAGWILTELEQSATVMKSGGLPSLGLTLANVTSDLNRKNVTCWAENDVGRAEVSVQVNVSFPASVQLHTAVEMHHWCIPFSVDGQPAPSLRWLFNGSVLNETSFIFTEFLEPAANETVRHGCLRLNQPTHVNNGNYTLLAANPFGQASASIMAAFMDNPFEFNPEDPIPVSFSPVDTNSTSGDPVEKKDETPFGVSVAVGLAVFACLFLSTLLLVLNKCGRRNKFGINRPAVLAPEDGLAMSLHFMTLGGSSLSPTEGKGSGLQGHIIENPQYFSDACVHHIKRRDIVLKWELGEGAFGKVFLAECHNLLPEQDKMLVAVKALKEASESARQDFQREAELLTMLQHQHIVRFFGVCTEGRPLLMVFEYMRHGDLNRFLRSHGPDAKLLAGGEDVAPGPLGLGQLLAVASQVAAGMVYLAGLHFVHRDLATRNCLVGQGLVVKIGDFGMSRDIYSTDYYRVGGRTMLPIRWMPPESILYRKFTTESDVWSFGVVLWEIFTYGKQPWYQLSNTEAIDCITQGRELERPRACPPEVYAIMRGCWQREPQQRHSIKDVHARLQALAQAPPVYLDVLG
T1 sequence (Q16620 32-822): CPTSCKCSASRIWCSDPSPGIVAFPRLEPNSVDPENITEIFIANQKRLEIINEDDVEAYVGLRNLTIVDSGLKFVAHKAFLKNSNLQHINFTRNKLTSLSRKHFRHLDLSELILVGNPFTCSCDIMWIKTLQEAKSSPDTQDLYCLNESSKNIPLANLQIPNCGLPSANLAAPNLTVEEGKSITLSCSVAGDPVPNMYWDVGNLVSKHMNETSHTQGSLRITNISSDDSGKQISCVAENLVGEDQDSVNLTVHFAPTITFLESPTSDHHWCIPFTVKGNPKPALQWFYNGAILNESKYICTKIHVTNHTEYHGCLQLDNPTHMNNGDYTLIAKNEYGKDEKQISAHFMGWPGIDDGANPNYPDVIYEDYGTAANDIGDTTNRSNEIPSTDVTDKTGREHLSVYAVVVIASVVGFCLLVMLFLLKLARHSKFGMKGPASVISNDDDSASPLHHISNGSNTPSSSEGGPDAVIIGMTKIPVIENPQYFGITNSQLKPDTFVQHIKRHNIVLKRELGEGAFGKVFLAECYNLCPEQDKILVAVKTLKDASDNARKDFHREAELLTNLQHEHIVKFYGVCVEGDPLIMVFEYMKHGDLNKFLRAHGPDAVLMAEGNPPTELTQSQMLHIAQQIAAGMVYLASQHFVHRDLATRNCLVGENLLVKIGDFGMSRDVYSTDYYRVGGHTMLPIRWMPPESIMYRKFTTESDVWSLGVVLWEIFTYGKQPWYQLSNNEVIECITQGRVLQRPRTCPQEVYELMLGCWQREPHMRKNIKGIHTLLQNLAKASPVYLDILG

With `Cc1cc(-n2c(=O)[nH]c(=O)n(-c3ccccc3)c2=O)ccc1-c1ccccc1` [Example 1, 1-{2-methyl-[1,1′-biphenyl]-4-yl}-3-phenyl-1,3,5-triazinane-2,4,6-trione], the EC50 in assay [1] was 0.09 µM; in assay [2] it was 0.18 µM.

Take `Cc1cc(-n2c(=O)[nH]c(=O)n(-c3ccccc3)c2=O)ccc1N1CCCCC1` [Example 2, 1-[3-methyl-4-(piperidin-1-yl)phenyl]-3-phenyl-1,3,5-triazinane-2,4,6-trione]: the concentration for a half-maximal effect (EC50) in assay [1] turned out to be 1.27 µM; in assay [2], 1.05 µM.

With `Cc1cc(-n2c(=O)[nH]c(=O)n(-c3ccccc3)c2=O)ccc1C(C)C` [Example 3, 1-[3-methyl-4-(propan-2-yl)phenyl]-3-phenyl-1,3,5-triazinane-2,4,6-trione], the EC50 is 7.9 µM in assay [1] and 7.05 µM in assay [2].

As for `Cc1ccc(-c2ccc(-n3c(=O)[nH]c(=O)n(-c4ccccc4)c3=O)cc2C)o1` [Example 4, 1-[3-methyl-4-(5-methylfuran-2-yl)phenyl]-3-phenyl-1,3,5-triazinane-2,4,6-trione], the EC50 is 2.08 µM in assay [1] and 6.77 µM in assay [2].

For the molecule `CCc1ccc(-c2ccc(-n3c(=O)[nH]c(=O)n(C)c3=O)cc2C)cc1` [Example 5, 1-{4′-ethyl-2-methyl-[1,1′-biphenyl]-4-yl}-3-methyl-1,3,5-triazinane-2,4,6-trione], the EC50 in assay [1] is 3 µM; in assay [2], 7.2 µM.

As to `Cc1cc(-n2c(=O)[nH]c(=O)n(-c3ccccc3)c2=O)ccc1-n1cccc1` [Example 6, 1-[3-methyl-4-(1H-pyrrol-1-yl)phenyl]-3-phenyl-1,3,5-triazinane-2,4,6-trione], the values for the EC50 in assay [1] and in assay [2] were 0.25 µM and 0.24 µM, respectively.

As to `Cc1cc(-n2c(=O)[nH]c(=O)n(C)c2=O)ccc1-c1ccccc1` [Example 7, 1-methyl-3-{2-methyl-[1,1′-biphenyl]-4-yl}-1,3,5-triazinane-2,4,6-trione], the EC50 in assay [1] was 20.6 µM; in assay [2], 6.71 µM.

In the case of `Cc1cc(-n2c(=O)[nH]c(=O)n(-c3ccccc3)c2=O)ccc1-n1cccn1` [Example 8, 1-[3-methyl-4-(1H-pyrazol-1-yl)phenyl]-3-phenyl-1,3,5-triazinane-2,4,6-trione], the 50% effective concentration (EC50) in assay [1] was determined as 6.22 µM; in assay [2] it was 5.56 µM.

As to `Cc1cccc(-n2c(=O)[nH]c(=O)n(-c3ccc(-n4cccc4)c(C)c3)c2=O)c1` [Example 11, 1-[3-methyl-4-(1H-pyrrol-1-yl)phenyl]-3-(3-methylphenyl)-1,3,5-triazinane-2,4,6-trione], the concentration for a half-maximal effect (EC50) in assay [1] stood at 0.07 µM; in assay [2], 0.1 µM.

In the case of `Cc1cc(-n2c(=O)[nH]c(=O)n(C)c2=O)ccc1Oc1ccc(SC(F)(F)F)cc1` [toltrazuril, 1-methyl-3-(3-methyl-4-{4-[(trifluoromethyl)sulfanyl]phenoxy}phenyl)-1,3,5-triazinane-2,4,6-trione], the “inhibits the binding of p-amyloid oligomers to ephrin type-B receptor 2 (EphB2)” value in assay [3] is 30%.
